# Target: E. coli nitroreductase A (NfsA) (Escherichia coli, UniProt P17117)
# Test: steady-state kinetics; competitive inhibition versus NADPH (also reduced as a substrate)
# Assay type: biochemical
# Sequence of E. coli nitroreductase A (NfsA) (P17117 whole entry): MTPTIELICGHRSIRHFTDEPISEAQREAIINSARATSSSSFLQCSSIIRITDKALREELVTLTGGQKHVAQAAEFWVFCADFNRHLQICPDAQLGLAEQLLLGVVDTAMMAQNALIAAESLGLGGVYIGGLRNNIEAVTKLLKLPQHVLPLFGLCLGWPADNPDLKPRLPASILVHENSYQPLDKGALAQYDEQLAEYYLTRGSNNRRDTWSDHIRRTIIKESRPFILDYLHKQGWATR
smiles,measurement,value
CC(=O)c1ccc[n+]([C@@H]2O[C@H](COP(=O)([O-])OP(=O)(O)OC[C@H]3O[C@@H](n4cnc5c(N)ncnc54)[C@H](OP(=O)(O)O)[C@@H]3O)[C@@H](O)[C@H]2O)c1 [APADP+],Ki,150 ± 12 µM
